US8318716B2, “Carbapenem derivatives” (KBP Biosciences Co., Ltd., priority 2009, dated 2012)
Converted amounts (≈) assume the structure as drawn. Where two headings read alike, the source gives them in different places.

Legend:
Assay type in all cases: cell-based
[1] = test system: methicillin-sensitive Staphylococcus aureus (MSSA); assay: In vitro antibacterial activity, agar dilution method, MSSA; conditions: clinically isolated strains
Description: (§1) Bacterial strains for test: All the bacterial strains are clinically isolated strains obtained from public sources. (1) Gram-positive bacteria: methicillin-sensitive Staphylococcus aureus (MSSA), methicillin-resistant Staphylococcus aureus (MRSA), methicillin-resistant Staphylococcus epidermidis (MRSE), methicillin-sensitive Staphylococcus epidermidis (MSSE), penicillin-sensitive Streptococcus pneumoniae (PSSP), and penicillin-resistant Streptococcus pneumoniae (PRSP); (2) Gram-negative bacteria: Escherichia coli (products from ESBLs), Klebsiella pneumonia, and Pseudomonas aeruginosa.
(§2) Drugs to be tested: Compounds 1 to 5, prepared as described above; Control drugs:
(§3) Meropenem (Meropenem for injection), Imipenem (Imipenem for injection), commercially available.
(§4) Experimental Method: the agar dilution method, by reference to Methodology of Pharmacological Experiment (X U Shuyun et al, published by the Peoples Medical Publishing House, 1st Edition, August, 1982; 3rd Edition, 5th printing, January 2002, p 1659-1660).

[2] = test system: methicillin-resistant Staphylococcus aureus (MRSA); assay: In vitro antibacterial activity, agar dilution method, MRSA; conditions: clinically isolated strains
Description: as §1, §2, §3, §4

[3] = test system: methicillin-sensitive Staphylococcus epidermidis (MSSE); assay: In vitro antibacterial activity, agar dilution method, MSSE
Description: as §1, §2, §3, §4

[4] = test system: methicillin-resistant Staphylococcus epidermidis (MRSE); assay: In vitro antibacterial activity, agar dilution method, MRSE; conditions: clinically isolated strains
Description: as §1, §2, §3, §4

[5] = test system: penicillin-sensitive Streptococcus pneumoniae (PSSP); assay: In vitro antibacterial activity, agar dilution method, PSSP; conditions: clinically isolated strains
Description: as §1, §2, §3, §4

[6] = test system: penicillin-resistant Streptococcus pneumoniae (PRSP); assay: In vitro antibacterial activity, agar dilution method, PRSP; conditions: clinically isolated strains
Description: as §1, §2, §3, §4

Klebsiella pneumonia = assay: In vitro antibacterial activity, agar dilution method, klebsiella pneumonia; conditions: Klebsiella pneumoniae, clinically isolated strains
Description: as §1, §2, §3, §4

proteus mirabilis = assay: In vitro antibacterial activity, agar dilution method, proteus mirabilis; conditions: clinically isolated strains
[7] = test system: Escherichia coli (products from ESBLs); assay: In vitro antibacterial activity, agar dilution method, ESBLs; conditions: clinically isolated strains
Description: as §1, §2, §3, §4

Pseudomonas aeruginosa = assay: In vitro antibacterial activity, agar dilution method, pseudomonas aeruginosa; conditions: clinically isolated strains
Description: as §1, §2, §3, §4

[8] = MSSE, clinically isolated strains, agar dilution, read-out: MIC90

Row | MIC90 [1] | MIC90 [2] | MIC90 [3, 8] | MIC90 [4] | MIC90 [5] | MIC90 [6] | MIC90 (Klebsiella pneumonia) | MIC90 (proteus mirabilis) | MIC90 [7] | MIC90 (Pseudomonas aeruginosa) | Structure (SMILES) | MIC90 [3]
1 | 0.063 µg/mL (≈ 0.21 µM) | 32 µg/mL (≈ 107 µM) | 0.031 µg/mL (≈ 0.104 µM) | 64 µg/mL (≈ 214 µM) | 0.016 µg/mL (≈ 0.0534 µM) | 0.5 µg/mL (≈ 1.67 µM) | 0.5 µg/mL (≈ 1.67 µM) | 8 µg/mL (≈ 26.7 µM) | 0.25 µg/mL (≈ 0.835 µM) | 8 µg/mL (≈ 26.7 µM) | C[C@@H](O)[C@H]1C(=O)N2C(C(=O)O)=C(SCCN=CN)C[C@H]12 [Imipenem, reference compound] | 
2 | 0.063 µg/mL (≈ 0.123 µM) | 16 µg/mL (≈ 31.3 µM) | 0.063 µg/mL (≈ 0.123 µM) | 16 µg/mL (≈ 31.3 µM) | 0.016 µg/mL (≈ 0.0313 µM) | 0.25 µg/mL (≈ 0.489 µM) | 0.063 µg/mL (≈ 0.123 µM) | 0.125 µg/mL (≈ 0.244 µM) | 0.016 µg/mL (≈ 0.0313 µM) | 2 µg/mL (≈ 3.91 µM) | C[C@@H](O)[C@H]1C(=O)N2C(C(=O)O)=C(S[C@@H]3CN[C@H](C(=O)NCc4ccc(OC(F)F)cc4)C3)[C@H](C)[C@H]12 [Compound 5] | 
3 | 0.031 µg/mL (≈ 0.0585 µM) | 16 µg/mL (≈ 30.2 µM) | 0.031 µg/mL (≈ 0.0585 µM) | 16 µg/mL (≈ 30.2 µM) | 0.016 µg/mL (≈ 0.0302 µM) | 0.125 µg/mL (≈ 0.236 µM) | 0.031 µg/mL (≈ 0.0585 µM) | 0.125 µg/mL (≈ 0.236 µM) | 0.016 µg/mL (≈ 0.0302 µM) | 4 µg/mL (≈ 7.55 µM) | C[C@@H](O)[C@H]1C(=O)N2C(C(=O)O)=C(S[C@@H]3CN[C@H](C(=O)NCc4ccc(OC(F)(F)F)cc4)C3)[C@H](C)[C@H]12 [Compound 4, (4R,5S,6S)-6-((R)-1-hydroxyethyl)-4-methyl-7-oxo-3-((3S,5S)-5-(4-(trifluoromethoxy)benzylcarbamoyl)pyrrolidin-3-ylthio)-1-azabicyclo[3.2.0]hept-2-ene-2-carboxylic acid] | 
4 |  | 16 µg/mL (≈ 30.5 µM) | 0.063 µg/mL (≈ 0.12 µM) | 32 µg/mL (≈ 61 µM) | 0.016 µg/mL (≈ 0.0305 µM) | 0.125 µg/mL (≈ 0.238 µM) | 0.063 µg/mL (≈ 0.12 µM) | 0.125 µg/mL (≈ 0.238 µM) | 0.063 µg/mL (≈ 0.12 µM) | 4 µg/mL (≈ 7.62 µM) | C[C@@H](O)[C@H]1C(=O)N2C(C(=O)O)=C(S[C@@H]3CN[C@H](C(=O)NCc4ccc(S(N)(=O)=O)cc4)C3)[C@H](C)[C@H]12 [Compound 2] | 
5 | 0.063 µg/mL (≈ 0.122 µM) | 32 µg/mL (≈ 61.8 µM) | 0.031 µg/mL (≈ 0.0599 µM) | 32 µg/mL (≈ 61.8 µM) | 0.031 µg/mL (≈ 0.0599 µM) | 0.25 µg/mL (≈ 0.483 µM) | 0.031 µg/mL (≈ 0.0599 µM) | 0.25 µg/mL (≈ 0.483 µM) | 0.031 µg/mL (≈ 0.0599 µM) | 2 µg/mL (≈ 3.86 µM) | C[C@@H](O)[C@H]1C(=O)N2C(C(=O)O)=C(S[C@@H]3CN[C@H](C(=O)NCc4cccc(CCC(=O)O)c4)C3)[C@H](C)[C@H]12 [Compound 3] | 
6 | 0.063 µg/mL (≈ 0.132 µM) | 16 µg/mL (≈ 33.6 µM) | 0.031 µg/mL (≈ 0.0652 µM) | 32 µg/mL (≈ 67.3 µM) | 0.016 µg/mL (≈ 0.0336 µM) | 0.25 µg/mL (≈ 0.526 µM) | 0.031 µg/mL (≈ 0.0652 µM) | 0.125 µg/mL (≈ 0.263 µM) | 0.031 µg/mL (≈ 0.0652 µM) | 4 µg/mL (≈ 8.41 µM) | COc1ccc(CNC(=O)[C@@H]2C[C@H](SC3=C(C(=O)O)N4C(=O)[C@H]([C@@H](C)O)[C@H]4[C@H]3C)CN2)cc1 [Compound 1, (4R,5S,6S)-6-((R)-1-hydroxyethyl)-3-((3S,5S)-5-(4-methoxybenzylcarbamoyl)pyrrolidin-3-ylthio)-4-methyl-7-oxo-1-azabicyclo[3.2.0]hept-2-ene-2-carboxylic acid] | 

Row | Structure (SMILES) | MIC90 [1] | MIC90 [2] | MIC90 [3, 8] | MIC90 [4] | MIC90 [5] | MIC90 [6] | MIC90 (Klebsiella pneumonia) | MIC90 (proteus mirabilis) | MIC90 [7] | MIC90 (Pseudomonas aeruginosa) | MIC90 [3]
7 | C[C@@H](O)[C@H]1C(=O)N2C(C(=O)O)=C(S[C@@H]3CN[C@H](C(=O)N(C)C)C3)[C@H](C)[C@H]12 [Meropenem, reference compound] | 0.25 µg/mL (≈ 0.652 µM) | 64 µg/mL (≈ 167 µM) |  | 64 µg/mL (≈ 167 µM) | 0.031 µg/mL (≈ 0.0808 µM) | 1 µg/mL (≈ 2.61 µM) | 0.063 µg/mL (≈ 0.164 µM) | 0.25 µg/mL (≈ 0.652 µM) | 0.031 µg/mL (≈ 0.0808 µM) | 4 µg/mL (≈ 10.4 µM) | 0.125 µg/mL (≈ 0.326 µM)
